Measured values taken from ChEMBL document CHEMBL1135421, “2-(Anilinomethyl)imidazolines as alpha1 adrenergic receptor agonists: the discovery of alpha1a subtype selective 2'-alkylsulfonyl-substituted analogues” (J Med Chem, 2002).
pKi: −log10 of the molar value.

Tests used:
[1] = molecular target: T1, Alpha-2C adrenergic receptor (Homo sapiens) (UniProt P18825); assay: Efficacy as percentage of the maximal effect observed for nonselective agonist UK-14304 in CHO cells expressing human Alpha-2C adrenergic receptor; format: functional, cell-based
T1 sequence (whole entry): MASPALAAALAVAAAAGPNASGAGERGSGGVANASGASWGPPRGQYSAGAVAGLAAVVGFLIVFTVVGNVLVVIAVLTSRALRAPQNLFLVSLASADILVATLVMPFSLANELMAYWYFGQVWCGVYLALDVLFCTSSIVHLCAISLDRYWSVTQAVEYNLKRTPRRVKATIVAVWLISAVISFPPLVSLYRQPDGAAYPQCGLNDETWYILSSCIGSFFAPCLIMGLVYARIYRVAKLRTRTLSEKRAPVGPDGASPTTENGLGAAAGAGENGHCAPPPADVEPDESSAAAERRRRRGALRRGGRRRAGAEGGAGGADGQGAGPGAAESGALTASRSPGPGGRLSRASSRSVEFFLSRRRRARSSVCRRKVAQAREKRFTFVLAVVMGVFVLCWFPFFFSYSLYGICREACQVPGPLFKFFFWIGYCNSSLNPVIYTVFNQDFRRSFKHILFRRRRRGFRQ

[2] = molecular target: T2, Alpha-1B adrenergic receptor (Homo sapiens, UniProt P35368); assay: Affinity to human Alpha-1B adrenergic receptor determined by radioligand binding techniques from rat-1 fibroblasts membranes
T2 sequence (P35368 whole entry): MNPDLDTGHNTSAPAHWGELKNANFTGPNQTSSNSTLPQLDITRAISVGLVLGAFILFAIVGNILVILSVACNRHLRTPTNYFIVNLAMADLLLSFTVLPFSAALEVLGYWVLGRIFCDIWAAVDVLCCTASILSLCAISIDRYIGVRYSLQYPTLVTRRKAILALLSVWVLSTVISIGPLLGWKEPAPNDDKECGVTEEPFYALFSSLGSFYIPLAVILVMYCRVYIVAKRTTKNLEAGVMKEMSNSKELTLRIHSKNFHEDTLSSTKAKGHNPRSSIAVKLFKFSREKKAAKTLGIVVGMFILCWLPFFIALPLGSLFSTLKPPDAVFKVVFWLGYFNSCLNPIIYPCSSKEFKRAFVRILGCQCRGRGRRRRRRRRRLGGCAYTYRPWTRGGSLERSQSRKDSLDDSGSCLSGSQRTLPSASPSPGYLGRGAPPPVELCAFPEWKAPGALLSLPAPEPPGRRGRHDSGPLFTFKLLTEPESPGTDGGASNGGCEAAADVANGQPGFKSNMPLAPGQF

[3] = molecular target: T3, Alpha-1A adrenergic receptor (Homo sapiens, UniProt P35348); assay: Affinity to Alpha-1 adrenergic receptor determined by radioligand binding techniques from rat-1 fibroblasts membranes
T3 sequence (P35348 whole entry): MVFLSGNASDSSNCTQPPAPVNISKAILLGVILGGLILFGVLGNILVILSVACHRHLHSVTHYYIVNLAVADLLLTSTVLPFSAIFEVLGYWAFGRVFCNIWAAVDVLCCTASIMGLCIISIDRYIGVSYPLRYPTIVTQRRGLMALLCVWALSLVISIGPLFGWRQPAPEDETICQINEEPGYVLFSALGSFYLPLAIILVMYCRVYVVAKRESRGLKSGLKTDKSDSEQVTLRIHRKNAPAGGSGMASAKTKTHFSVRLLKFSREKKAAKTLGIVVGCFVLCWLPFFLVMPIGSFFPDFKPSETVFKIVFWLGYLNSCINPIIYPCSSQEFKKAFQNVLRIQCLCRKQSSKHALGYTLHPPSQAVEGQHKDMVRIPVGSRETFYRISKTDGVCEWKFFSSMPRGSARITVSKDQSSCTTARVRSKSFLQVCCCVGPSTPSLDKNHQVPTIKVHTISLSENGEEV

[4] = molecular target: T4, Alpha-1D adrenergic receptor (Homo sapiens, UniProt P25100); assay: Affinity to human Alpha-1D adrenergic receptor determined by radioligand binding techniques from rat-1 fibroblasts membranes
T4 sequence (P25100 whole entry): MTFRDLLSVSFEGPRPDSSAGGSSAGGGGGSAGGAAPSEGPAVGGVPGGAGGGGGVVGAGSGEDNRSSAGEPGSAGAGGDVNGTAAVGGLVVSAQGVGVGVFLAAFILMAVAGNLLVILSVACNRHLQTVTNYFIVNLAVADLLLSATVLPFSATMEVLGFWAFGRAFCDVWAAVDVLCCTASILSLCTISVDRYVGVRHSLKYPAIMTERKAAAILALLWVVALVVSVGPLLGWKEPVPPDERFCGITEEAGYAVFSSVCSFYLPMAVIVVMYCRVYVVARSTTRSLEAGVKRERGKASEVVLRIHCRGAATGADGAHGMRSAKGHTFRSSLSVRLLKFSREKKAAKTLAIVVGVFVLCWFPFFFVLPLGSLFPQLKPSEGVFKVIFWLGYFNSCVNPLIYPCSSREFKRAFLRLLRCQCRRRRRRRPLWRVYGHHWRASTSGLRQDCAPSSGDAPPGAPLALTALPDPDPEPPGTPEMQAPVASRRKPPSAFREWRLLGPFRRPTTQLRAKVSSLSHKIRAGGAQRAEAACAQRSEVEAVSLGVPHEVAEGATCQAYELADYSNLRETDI

[5] = molecular target: T5, Alpha-2B adrenergic receptor (Homo sapiens, UniProt P18089); assay: Affinity to human Alpha-2B adrenergic receptor determined by radioligand binding techniques from chinese hamster ovary (CHO) cells; format: cell-based
T5 sequence (P18089 whole entry): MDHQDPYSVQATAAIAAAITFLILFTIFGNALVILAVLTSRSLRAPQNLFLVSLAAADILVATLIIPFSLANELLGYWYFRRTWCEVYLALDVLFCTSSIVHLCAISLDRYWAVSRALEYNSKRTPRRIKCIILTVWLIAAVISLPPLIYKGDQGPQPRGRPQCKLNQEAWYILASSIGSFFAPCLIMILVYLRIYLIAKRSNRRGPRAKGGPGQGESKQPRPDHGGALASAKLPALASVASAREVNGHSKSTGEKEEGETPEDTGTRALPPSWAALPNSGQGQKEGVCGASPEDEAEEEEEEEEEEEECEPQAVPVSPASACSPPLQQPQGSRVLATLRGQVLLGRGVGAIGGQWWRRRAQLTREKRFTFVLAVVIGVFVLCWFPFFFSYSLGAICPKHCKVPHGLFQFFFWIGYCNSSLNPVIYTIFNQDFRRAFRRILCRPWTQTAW

[6] = molecular target: T6, Alpha-2C adrenergic receptor (Homo sapiens, UniProt P18825); assay: Affinity to human Alpha-2C adrenergic receptor determined by radioligand binding techniques from chinese hamster ovary (CHO) cells; format: cell-based
T6 sequence (P18825 whole entry): T1 sequence (whole entry)

Compound | Max [1] [%] | pKi [2] | pKi [3] | pKi [4] | pKi [5] | pKi [6]
CC(C)S(=O)(=O)c1ccccc1NCC1=NCCN1 | 50 | 6.00 | 5.57 | 5.55 | < 5.20 | < 5.30
Cc1ccc(S(C)(=O)=O)c(NCC2=NCCN2)c1 | 76 | 5.46 | 6.11 | 5.32 | < 5.20 | < 5.30
CSc1ccc(Cl)cc1NCC1=NCCN1 | 92 | 7.16 | 7.73 | 8.33 | 6.17 | 6.77
CSc1ccc(C)cc1NCC1=NCCN1 | 81 | 6.91 | 7.68 | 7.76 | 6.01 | 6.70
CS(=O)(=O)c1ccc(F)cc1NCC1=NCCN1 | 91 | 5.88 | 6.09 | 5.58 | < 5.20 | < 5.30
CSc1ccc(F)cc1NCC1=NCCN1 | 97 | 7.39 | 7.48 | 8.21 | 6.48 | 6.94
CCCS(=O)(=O)c1ccccc1NCC1=NCCN1 | 56 | 6.08 | 5.66 | 5.86 | < 5.20 | 5.58
CSc1cc(F)ccc1NCC1=NCCN1 | 82 | 7.82 | 7.68 | 8.30 | 6.07 | 6.66
CCS(=O)(=O)c1ccccc1NCC1=NCCN1 | 64 | 6.04 | 5.92 | 5.65 | < 5.20 | 5.60
CCSc1ccccc1NCC1=NCCN1 | 101 | 7.12 | 7.36 | 7.24 | 5.79 | 6.57
CS(=O)(=O)c1ccccc1NCC1=NCCN1 | 68 | 5.89 | 6.23 | 5.42 | < 5.20 | < 5.30
CS(=O)(=O)c1cc(Cl)ccc1NCC1=NCCN1 | 54 | 6.19 | 6.34 | 6.06 | < 5.20 | 5.40
CSc1c(F)cccc1NCC1=NCCN1 | 104 | 6.62 | 6.83 | 6.52 | 5.40 | 6.66
C[S+]([O-])c1ccccc1NCC1=NCCN1 (stereo not drawn) | 74 | 6.10 | 5.89 | 5.92 | < 5.20 | < 5.30
CSc1ccccc1NCC1=NCCN1 | 82 | 7.18 | 7.36 | 7.95 | 6.11 | 6.84
COc1ccc(SC)c(NCC2=NCCN2)c1 | 74 | 6.16 | 6.76 | 6.97 | < 5.20 | 6.22
CS(=O)(=O)c1ccc(C(F)(F)F)cc1NCC1=NCCN1 | 25 | < 5.00 | < 4.90 | < 4.80 | < 5.20 | < 5.30
CC(C)Sc1ccccc1NCC1=NCCN1 | 91 | 6.77 | 7.24 | 6.65 | 5.63 | 6.78
CS(=O)(=O)c1ccc(Cl)cc1NCC1=NCCN1 | 81 | 5.53 | 6.27 | 5.62 | < 5.20 | 5.32
CS(=O)(=O)c1cccc(F)c1NCC1=NCCN1 | 93 | 6.42 | 6.38 | 6.04 | < 5.20 | 6.16
CSc1ccc(C(F)(F)F)cc1NCC1=NCCN1 | 45 | 5.69 | 6.23 | 6.32 | 5.78 | 6.22
CS(=O)(=O)c1c(F)cccc1NCC1=NCCN1 | 93 | 5.64 | 6.26 | 5.46 | < 5.20 | 6.59
CS(=O)(=O)c1cc(F)ccc1NCC1=NCCN1 | 32 | 6.29 | 6.18 | 5.79 | < 5.20 | < 5.30
